Data reported in patent US5077207A, “Process for the production of L-threonine by fermentation” (Ajinomoto Co., Inc., priority 1989, dated 1991).

Tests used:
[1] = test system: AJ 12361 (Mutant); assay: Degree of AHV resistance (growth in glucose minimum liquid medium, absorbance); format: cell-based; details: [Brevibacterium] flavum, 24 h, read-out: Relative Degree of Growth (%)
Procedure: (§1) Thereafter, the degrees of AHV resistance of DPS deleted strains AJ 12360 and AJ 12361 were compared against their parent strains. The degree of AHV resistance was determined by cultivating the strain in the complete agar plate medium shown in Table 2 which also contained 1 g/l of DAP, […] of dipicolinic acid and further, in the case of AJ 12361 and its parent strain AC 664, 300 mg/l of L-histidine hydrochloride as a growth promoting substance, at 30° C. for 24 hours. The same medium dispensed in 3 ml into test tubes, was inoculated with the cells, and the inoculated media were cultured while being shaked for 24 hours. The absorbance of each medium was measured at 566 nm under conditions in which AHV was added or was not added to a given medium. To each glucose minimum liquid medium prepared were added, as growth promoting substances, 200 mg/l of L-histidine hydrochloride, in the case of AJ 12361 and AC 664 strains, and 500 mg/l each of DAP and lysine in the case of AJ 12360 and AJ 11955 strains. Especially, since DAP or DAP and lysine often promoted the growth of the DPS deleted or reduced strain, DAP was added to the liquid and plate media in the experiments described so far as needed. […]

[2] = test system: AJ 12360 (Mutant); assay: as above; format: cell-based; details: [Brevibacterium] flavum, 24 h, read-out: Relative Degree of Growth (%)
Procedure: as §1

[3] = biological target: Homoserine Dehydrogenase (Corynebacterium glutamicum, UniProt P08499); assay: Homoserine dehydrogenase feedback inhibition by threonine (crude enzyme solution); format: biochemical, Brevibacterium flavum; details: 1 mM threonine
Procedure: The amount of threonine produced in a given fermentation experiment was measured by the method described below, and the amount of lysine produced was measured by an acidic ninhydrin method. Further, the DPS activity was measured as follows. A medium obtained by adding 1 g/l of DAP to a medium useful for threonine production shown in Table 3 was dispensed in 20 ml amounts into 500 ml flasks which could be shaken. The flasks were sterilized by autoclaving. The medium compositions used were N50S30 for the AJ 12360 strain and N25S35 for the AJ 12361-2 and DA 110 strains. Each medium was inoculated with one loop of the strain which had been previously cultivated in a complete agar plate medium shown in Table 2. Each medium was supplemented with 1 g/l of DAP and 300 mg/l of L-histidine hydrochloride at 30° C. for 24 hours, and culturing was conducted at 30° C. for 40 hours in the shaking flasks. The cells were collected and washed with a 0.2% potassium chloride solution. These washed cells were suspended in a 50 mM potassium phosphate buffer (pH 7.0), and then were centrifugally separated after ultrasonic treatment in a supernatant. The supernatant was gel filtered through a Sephadex G25 column using the same buffer to prepare a crude enzyme solution. The activity was measured by carrying out the reaction at 30° C. for 10 minutes, terminating the reaction by adding 1 ml of 0.05 N hydrochloric acid thereto, and then measuring the change in absorbance at 340 nm by using a reaction mixture shown in Table 8 to determine the amount of pyruvic acid consumed. The control for this reaction was a DL-aspartate-β-semialdehyde-free system. The HD activity was measured as follows. The crude enzyme solution was prepared in a manner similar to that employed in the above-described DPS activity measurement, except that a 0.1 M potassium phosphate buffer containing 0.5 M potassium chloride (pH 7.0) was used as the buffer instead of the 50 mM potassium phosphate buffer. The activity measurement was conducted by measuring the reduction in absorbance at 340 nm in the reaction system shown in Table 9. The control for this reaction was a DL-aspartate-β-semialdehyde-free system. […]

Sequence of Homoserine Dehydrogenase (P08499 whole entry): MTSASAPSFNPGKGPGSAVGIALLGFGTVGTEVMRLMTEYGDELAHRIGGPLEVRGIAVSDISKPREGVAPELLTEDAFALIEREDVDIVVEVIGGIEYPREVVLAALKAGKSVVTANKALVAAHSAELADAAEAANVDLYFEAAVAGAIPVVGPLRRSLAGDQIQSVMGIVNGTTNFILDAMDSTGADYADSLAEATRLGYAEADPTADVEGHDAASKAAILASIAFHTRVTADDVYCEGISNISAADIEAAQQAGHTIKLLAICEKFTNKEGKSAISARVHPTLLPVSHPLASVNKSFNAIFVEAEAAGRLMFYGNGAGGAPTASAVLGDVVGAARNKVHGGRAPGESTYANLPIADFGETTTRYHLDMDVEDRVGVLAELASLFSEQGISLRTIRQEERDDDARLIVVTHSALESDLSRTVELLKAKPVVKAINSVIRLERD

| SMILES | activity at 200000 µg/mL [1] | activity at 500000 µg/mL [1] | activity at 1 g/mL [1] | activity at 200000 µg/mL [2] | activity at 500000 µg/mL [2] | activity at 1 g/mL [2] | Homoserine Dehydrogenase Feedback Inhibition (%)** ([3]; enzyme from strain AC 664 (Parent strain)) | Homoserine dehydrogenase feedback inhibition by threonine (%) ([3]; enzyme from strain AJ 11955 (parent strain)) | Homoserine dehydrogenase feedback inhibition by threonine (%) ([3]; enzyme from strain AJ 12360 (mutant)) | Homoserine Dehydrogenase Feedback Inhibition (%)** ([3]; enzyme from strain AJ 12361 (Mutant)) | Homoserine Dehydrogenase Feedback Inhibition (%)** ([3]; enzyme from strain AJ12362 (Mutant)) | Homoserine Dehydrogenase Feedback Inhibition (%)** ([3]; enzyme from strain AJ12363 (Mutant)) | Homoserine Dehydrogenase Feedback Inhibition (%)** ([3]; enzyme from strain DA 110 (Mutant)) |
| --- | --- | --- | --- | --- | --- | --- | --- | --- | --- | --- | --- | --- | --- |
| CCC(O)C(N)C(=O)O (stereo not drawn) [AHV, α-amino-β-hydroxyvaleric acid] | 105% | 65.8% | 39.1% | 46.7% | 42.6% | 37.5% | – | – | – | – | – | – | – |
| C[C@@H](O)[C@H](N)C(=O)O [threonine, L-threonine] | – | – | – | – | – | – | 98% | 98% | 98% | 98% | 96% | 16% | 98% |
